Source: ChEMBL document CHEMBL5331043, “A comprehensive review on acridone based derivatives as future anti-cancer agents and their structure activity relationships” (Eur J Med Chem, 2022)
Converted amounts (≈) assume the structure as drawn. “And” between values parts separate entries of the source, which are not always exact repeats. Equal values may be shown once. Values belong to the compound of their own block, whether it stands above or below them.

Experiments:
[1] = system: NCI-H23; experiment: Cytotoxicity against human NCI-H23 cells; format: functional; conditions: read-out: LC50 (the source's name)
[2] = system: M14; experiment: Cytotoxicity against human M14 cells; format: functional; conditions: read-out: LC50 (the source's name)
[3] = system: A498; experiment: Cytotoxicity against human A498 cells; format: functional; conditions: read-out: LC50 (the source's name)
[4] = system: UACC-62; experiment: Cytotoxicity against human UACC-62 cells; format: functional; conditions: read-out: LC50 (the source's name)
[5] = system: MCF7; experiment: Cytotoxicity against human MCF7 cells assessed as reduction in cell viability incubated for 72 hrs by MTT assay; format: functional, cell-based; conditions: MCF7, 72 h
[6] = system: MDA-MB-231; experiment: Cytotoxicity against human MDA-MB-231 cells assessed as reduction in cell viability incubated for 72 hrs by MTT assay; format: functional, cell-based; conditions: MDA-MB-231, 72 h
[7] = system: MCF7; experiment: Cytotoxicity against human wild type MCF7 cells; format: functional, cell-based
[8] = system: MCF7-DOX; experiment: Cytotoxicity against human MCF7-DOX cells; format: functional, cell-based
[9] = Cytotoxicity against human MCF7/Mitox cells; format: functional, cell-based
[10] = target: Stimulator of interferon genes protein (Homo sapiens, UniProt Q86WV6); experiment: Activation of STING pathway in human 293T-hSTING-R232 cells incubated for 48 hrs by QUANTI-Luc assay; format: cell-based, 293T-hSTING-R232 cell
[11] = Cytotoxicity against human MDA-MB-231/BCRP cells assessed as reduction in cell growth by resazurin reduction assay; format: functional, cell-based
[12] = system: HL-60; experiment: Cytotoxicity against human HL-60 cells assessed as cell growth inhibition incubated for 72 hrs by tryphan blue staining based analysis; format: functional; conditions: HL-60, 72 h
[13] = Cytotoxicity against human mitoxantrone resistant human MCF7/Mitox cells assessed as reduction in cell viability incubated for 72 hrs by SRB assay; format: functional, cell-based
[14] = system: MCF7-DOX; experiment: Cytotoxicity against human doxorubicin resistant MCF7-DOX cells assessed as reduction in cell viability incubated for 72 hrs by SRB assay; format: functional, cell-based
[15] = system: MCF7; experiment: Cytotoxicity against human wild type MCF7 cells assessed as reduction in cell viability measured after 72 hrs by SRB assay; format: functional, cell-based; conditions: MCF7, 72 h
[16] = system: PC-3; experiment: Antiproliferative activity against human PC-3 cells assessed as reduction in cell viability measured after 24 hrs by MTT assay; format: functional, cell-based; conditions: PC-3, 24 h
[17] = system: MCF7; experiment: Antiproliferative activity against human MCF7 cells assessed as reduction in cell viability incubated for 48 hrs by MTT assay; format: functional, cell-based; conditions: MCF7, 48 h
[18] = target: MAP/microtubule affinity-regulating kinase 4 (Homo sapiens, UniProt Q96L34); experiment: Inhibition of human MARK4 ATPase activity using ATP as substrate incubated for 10 to 20 mins by Biomol green reagent based ELISA analysis
[19] = system: SW1573; experiment: Cytotoxicity against human SW1573 cells assessed as reduction in cell viability incubated for 72 hrs by SRB assay; format: functional, cell-based; conditions: SW1573, 72 h
[20] = system: HL-60; experiment: Anticancer activity against human HL-60 cells assessed as cell growth inhibition incubated for 72 hrs by MTT assay; format: functional, cell-based; conditions: HL-60, 72 h
[21] = system: P388; experiment: Cytotoxicity against mouse P388 cells; format: functional, cell-based
[22] = system: HL-60; experiment: Cytotoxicity against human HL-60 cells assessed as cell growth inhibition incubated for 72 hrs by SRB assay; format: functional, cell-based; conditions: HL-60, 72 h
[23] = system: HL60/ADR; experiment: Cytotoxicity against drug resistant human HL60/ADR cells assessed as inhibition of cell growth incubated for 72 hrs by SRB assay; format: functional, cell-based
[24] = Cytotoxicity against drug resistant human HL60/VCR assessed as inhibition of cell growth incubated for 72 hrs by SRB assay; format: functional, cell-based
[25] = system: CCRF-CEM; experiment: Cytotoxicity against human CCRF-CEM cells assessed as cell growth inhibition; format: functional, cell-based
[26] = Cytotoxicity against human KB-ChR-8-5 cells assessed as reduction in cell growth incubated for 7 days in presence of vinblastine; format: functional, cell-based; conditions: KB-ChR-8-5, 168 h
[27] = system: MCF7; experiment: Cytotoxicity against human MCF7 cells assessed as reduction in cell growth incubated for 72 hrs by SRB assay; format: functional, cell-based; conditions: MCF7, 72 h
[28] = Cytotoxicity against human SW1398 cells assessed as cell growth inhibition incubated for 72 hrs by SRB assay; format: functional, cell-based; conditions: SW1398, 72 h
[29] = system: WiDr; experiment: Cytotoxicity against human WiDr cells assessed as cell growth inhibition incubated for 72 hrs by SRB assay; format: functional, cell-based
[30] = system: MCF7; experiment: Cytotoxicity against human MCF7 cells assessed as cell growth inhibition incubated for 72 hrs by SRB assay; format: functional, cell-based; conditions: MCF7, 72 h
[31] = system: Raji; experiment: Antitumor activity against human Raji cells xenografted in ICR mouse assessed as reduction in tumor growth measured after 20 weeks; format: functional; set-up: scale not given: the % may be the effect or the level left
[32] = Cytotoxicity against human KKU-213C assessed as reduction in cell viability incubated for 24 hrs by SRB assay; format: functional, cell-based
[33] = system: HepG2; experiment: Cytotoxicity against human HepG2 cells assessed as reduction in cell viability incubated for 24 hrs by SRB assay; format: functional, cell-based; conditions: HepG2, 24 h
[34] = system: HepG2; experiment: Cytotoxicity against human HepG2 cells assessed as reduction in cell viability incubated for 48 hrs by alamar blue reagent based fluorescence assay; format: functional; conditions: HepG2, 48 h
[35] = system: MCF7; experiment: Cytotoxicity against human MCF7 cells assessed as reduction in cell viability incubated for 48 hrs by alamar blue reagent based fluorescence assay; format: functional; conditions: MCF7, 48 h
[36] = system: MCF7; experiment: Cytotoxicity against human MCF7 cells assessed as reduction in cell viability by SRB assay; format: functional, cell-based
[37] = system: MCF7; experiment: Antitumor activity against human MCF7 cells xenografted in BALB/c nude mouse assessed as inhibition of tumor growth at 1 mg/kg, ip administered once daily for 21 days; format: functional; conditions: MCF7, 504 h, time 21 day, read-out: TGI
[38] = system: A-431; experiment: Cytotoxicity against human A-431 cells assessed as reduction in cell viability measured after 72 hrs by MTT assay; format: functional, cell-based; conditions: A-431, 72 h
[39] = system: MCF7; experiment: Cytotoxicity against human MCF7 cells assessed as reduction in cell viability measured after 72 hrs by MTT assay; format: functional, cell-based; conditions: MCF7, 72 h
[40] = system: HeLa; experiment: Cytotoxicity against human HeLa cells assessed as reduction in cell viability measured after 72 hrs by MTT assay; format: functional, cell-based
[41] = system: A549; experiment: Antiproliferative activity against human A549 cells assessed as reduction in cell viability incubated for 72 hrs by MTT assay; format: functional, cell-based; conditions: A549, 72 h
[42] = system: PC-3; experiment: Antiproliferative activity against human PC-3 cells assessed as reduction in cell viability incubated for 72 hrs by MTT assay; format: functional, cell-based; conditions: PC-3, 72 h
[43] = system: MCF7; experiment: Antiproliferative activity against human MCF7 cells assessed as reduction in cell viability incubated for 72 hrs by MTT assay; format: functional, cell-based; conditions: MCF7, 72 h
[44] = system: HepG2; experiment: Antiproliferative activity against human HepG2 cells assessed as reduction in cell viability incubated for 72 hrs by MTT assay; format: functional, cell-based; conditions: HepG2, 72 h

Sequence of MAP/microtubule affinity-regulating kinase 4 (Q96L34 whole entry): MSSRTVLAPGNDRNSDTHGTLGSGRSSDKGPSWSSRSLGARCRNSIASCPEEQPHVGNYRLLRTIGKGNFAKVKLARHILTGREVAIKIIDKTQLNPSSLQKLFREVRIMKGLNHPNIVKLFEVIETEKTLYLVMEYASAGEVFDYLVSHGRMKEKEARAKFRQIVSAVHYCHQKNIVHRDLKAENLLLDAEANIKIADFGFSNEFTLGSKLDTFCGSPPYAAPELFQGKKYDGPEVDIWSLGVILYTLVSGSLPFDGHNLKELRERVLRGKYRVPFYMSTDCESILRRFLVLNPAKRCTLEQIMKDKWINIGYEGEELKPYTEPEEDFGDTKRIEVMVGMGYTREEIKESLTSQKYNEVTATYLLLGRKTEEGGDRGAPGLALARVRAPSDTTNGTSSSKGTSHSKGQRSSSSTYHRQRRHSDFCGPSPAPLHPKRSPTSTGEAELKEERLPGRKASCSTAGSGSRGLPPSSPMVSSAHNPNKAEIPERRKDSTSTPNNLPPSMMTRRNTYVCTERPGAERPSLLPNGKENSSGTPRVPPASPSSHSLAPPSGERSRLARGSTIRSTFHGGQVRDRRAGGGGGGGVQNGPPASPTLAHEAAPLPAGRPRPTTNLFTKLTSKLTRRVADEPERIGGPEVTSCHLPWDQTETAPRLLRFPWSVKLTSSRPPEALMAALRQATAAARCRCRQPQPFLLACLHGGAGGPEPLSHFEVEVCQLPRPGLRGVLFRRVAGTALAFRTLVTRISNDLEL
Sequence of Stimulator of interferon genes protein (Q86WV6 whole entry): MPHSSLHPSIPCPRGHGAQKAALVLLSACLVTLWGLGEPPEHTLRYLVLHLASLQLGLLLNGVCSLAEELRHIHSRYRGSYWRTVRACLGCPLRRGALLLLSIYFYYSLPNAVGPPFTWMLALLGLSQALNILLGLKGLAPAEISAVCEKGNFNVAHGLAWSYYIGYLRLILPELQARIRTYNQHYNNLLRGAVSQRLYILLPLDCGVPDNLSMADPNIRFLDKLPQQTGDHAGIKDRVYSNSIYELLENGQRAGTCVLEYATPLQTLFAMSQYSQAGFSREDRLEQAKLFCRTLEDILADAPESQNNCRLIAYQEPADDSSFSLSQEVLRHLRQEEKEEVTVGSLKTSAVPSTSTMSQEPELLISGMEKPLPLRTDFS

Compound: COc1cc2c(cc1OCCCNC(=O)c1cccc3c(O)c4ccccc4nc13)N=C[C@@H]1CCCN1C2=O
- CC50 [1]: 0.07 µM
- CC50 [2]: < 0.01 µM
- CC50 [3]: 0.05 µM
- CC50 [4]: < 0.01 µM

Compound: CCOC(=O)c1c(C)nc(NNC(=O)c2cccc3c(=O)c4ccccc4[nH]c23)nc1-c1ccc(F)cc1
- IC50 [5]: 7.3 µM

Compound: CCOC(=O)c1c(C)nc(NNC(=O)c2cccc3c(=O)c4ccccc4[nH]c23)nc1-c1ccccc1F
- IC50 [6]: 7.12 µM

Compound: CCOC(=O)c1c(C)nc(NNC(=O)c2cccc3c(=O)c4ccccc4[nH]c23)nc1-c1ccc(OC)cc1
- IC50 [6]: 6.28 µM

Compound: Cc1ccc(NC(=O)c2cccc3c(=O)c4ccccc4[nH]c23)cc1
- IC50 [7]: 6.5 µM
- IC50 [8]: 8.3 µM
- IC50 [9]: 7.4 µM

- EC50 [10]: 134 µM
Compound: COc1cc2c(=O)c3cccc(CC(=O)O)c3[nH]c2c(C)c1C

Compound: COc1cc(OC)c2c(=O)c3ccccc3n(C)c2c1
- IC50 [11]: 3.38 µM

Compound: CCOC(=O)c1c(C)nc(NNC(=O)c2cccc3c(=O)c4ccccc4[nH]c23)nc1-c1ccc(CC(C)C)cc1
- IC50 [5]: 4.32 µM
- IC50 [6]: 8.61 µM

Compound: CCN(CC)CCCCn1c2ccccc2c(=O)c2c(OC(C)=O)cc(OC(C)=O)cc21
- IC50 [12]: 0.45 µM

Compound: O=C(c1ccc2c(c1)c(=O)c1ccccc1n2CCCCO[N+](=O)[O-])N1CCOCC1
- IC50 [13]: 0.8 µM and > 2.7 µM
- IC50 [14]: > 1.9 µM
- IC50 [15]: 0.8 µM

- IC50 [16]: 1.2 µM
Compound: CN(C)CCNC(=O)c1ccc([N+](=O)[O-])c2[nH]c3ccccc3c(=O)c12

- IC50 [17]: 5.2 µM
- IC50 [18]: 1.8 µM
Compound: Cc1ccc(NC(=O)Cn2c3ccccc3c(=O)c3cc(C)ccc32)cc1

Compound: O=C(NN1CCN(c2ccccc2)CC1)c1cccc2c(=O)c3ccccc3[nH]c12
- IC50 [7]: 4.5 µM
- IC50 [8]: 6.6 µM
- IC50 [9]: 5.1 µM

Compound: O=c1c2ccccc2n(CCCCN2CCN(CCO)CC2)c2c(F)cccc12
- IC50 [19]: 5.1 µM

- IC50 [20]: 0.007 µM
Compound: N#Cc1c(F)c(Cl)c2[nH]c3ccccc3c(=O)c2c1F

Compound: CN(C)CCn1c(=O)c2cc(N)cc3c(=O)c4ccccc4n(c1=O)c32
- IC50 [21]: 63 µM

Compound: CC(=O)Nc1ccc2[nH]c3c(C(=O)NCCN(C)C)cccc3c(=O)c2c1
- IC50 [21]: 22 µM

Compound: O=c1c2ccccc2n(CCCCN2CCN(CCO)CC2)c2c(Cl)cccc12
- IC50 [22]: 0.45 µM
- IC50 [23]: 1.07 µM
- IC50 [24]: 0.49 µM

Compound: CCN(CC)CCCCn1c2ccccc2c(=O)c2cc(F)ccc21
- IC50 [12]: 0.51 µM

Compound: COc1cc(Cn2c3ccc(C(=O)CCN4CCCC4)cc3c(=O)c3cc(C(=O)NCCN4CCCC4)ccc32)cc(OC)c1
- IC50 [25]: 0.28 µM

- IC50 [16]: 2 µM
Compound: CCN(CC)CCNC(=O)c1ccc([N+](=O)[O-])c2[nH]c3ccccc3c(=O)c12

Compound: O=C(c1cccc2c(=O)c3ccccc3[nH]c12)N1CCN(c2ccccc2)CC1
- IC50 [7]: 4.5 µM
- IC50 [8]: 6.5 µM
- IC50 [9]: 5.1 µM

Compound: CC(=O)Nc1cc2c(=O)c3ccccc3n3c(=O)n(CCN(C)C)c(=O)c(c1)c23
- IC50 [21]: 0.86 µM

Compound: O=c1c2ccccc2n(CCCCN2CCN(CCO)CC2)c2ccc(Br)cc12
- IC50 [26]: 3.7 µM

Compound: O=C(NC(=O)n1c(-c2ccccc2)nc2ccc(Br)cc2c1=O)c1cccc2c(=O)c3ccccc3[nH]c12
- IC50 [27]: 2.9 µM
- IC50 [28]: 6 µM
- IC50 [29]: 9.8 µM
- IC50 [30]: 7.9 µM

- IC50 [17]: 5.2 µM
- IC50 [18]: 1.8 µM
Compound: COc1ccc(CNC(=O)Cn2c3ccccc3c(=O)c3cc(C)ccc32)cc1

Compound: CC(C)=CCc1c(O)c(CC=C(C)C)c2c(c1O)c(=O)c1ccccc1n2C
- Activity [31]: 48%

- IC50 [17]: 5.2 µM
Compound: Cc1ccc2c(c1)c(=O)c1ccccc1n2CC(=O)NCc1ccccc1

Compound: COc1cc2[nH]c3c(O)cccc3c(=O)c2c(O)c1CC=C(C)C
- IC50 [32]: 1.43 µg/mL (≈ 4.4 µM)
- IC50 [33]: 1.43 µg/mL (≈ 4.4 µM)

Compound: COc1cc(O)c(OC)c2c1c(=O)c1cccc(O)c1n2C
- IC50 [34]: 0.22 µM
- IC50 [35]: 0.22 µM

Compound: COc1cccc2c(=O)c3ccccc3n(CCCCN3CCN(CCO)CC3)c12
- IC50 [26]: < 6 µM

Compound: Cc1ccc2c(c1)c(=O)c1ccccc1n2CCCCN(CCO)CCO
- IC50 [36]: 6.1 µM

Compound: Cc1cccc2c(=O)c3ccccc3n(CCCCN(CCO)CCO)c12
- IC50 [36]: 8.1 µM

Compound: O=c1c2ccccc2[nH]c2ccccc12 [ACRIDONE]
- inhibition in vivo at 1 mg/kg [37]: 29%

Compound: COc1cc2c(c(O)c1OC)c(=O)c1ccccc1n2C [ARBORININE]
- IC50 [38]: 1.84 µM
- IC50 [39]: 1.84 µM
- IC50 [40]: 1.84 µM

- IC50 [41]: 12.5 µM
- IC50 [42]: 12.5 µM
- IC50 [43]: 12.5 µM
- IC50 [44]: 12.5 µM
Compound: COc1c(O)ccc2c(=O)c3c(O)cc4c(c3n(C)c12)C=CC(C)(C)O4 [CITRACRIDONE I]

Compound: COc1cc(O)c2c(=O)c3cccc(O)c3n(C)c2c1OC [CITRUSININE-I]
- IC50 [34]: 0.22 µM
- IC50 [35]: 0.22 µM
